Laboratory results as given in patent US6911416B2, “Substituted N-benzoyl-n′(tetrazolylphenyl)-ureas and their use as pest control agents” (priority 2000, dated 2005).

test system: not listed separately; assay: logP (pH2) determination by HPLC, EEC directive 79/831 Annex V. A8; format: physicochemical; details: pH 2

log P(pH2) | Molecule | logP (pH2) or m.p. (° C.)
– | O=C(NC(=O)c1c(F)cccc1F)Nc1ccc(-c2nnn(-c3ccccc3)n2)cc1Cl [Example 19] | 4.63
2.31 | N-(2,6-difluorobenzoyl)-N′-[2-chloro-4-(1-methyl-tetrazol-5-yl]-urea [Example 3] | –

same assay, conditions: pH2; Table 1, compounds of formula (I); only decimal values are logP

Molecule | logP (pH2)
CC(C)(C)n1nnc(-c2ccc(NC(=O)NC(=O)c3c(F)cccc3F)cc2Cl)n1 [Example 35] | 3.68
O=C(NC(=O)c1c(F)cccc1F)Nc1cc(Cl)c(-c2nn[nH]n2)cc1Cl [Example 7] | 2.30
O=C(NC(=O)c1c(F)cccc1F)Nc1ccc(Cl)cc1-c1nn[nH]n1 [Example 6] | 2.16
CC(C)(C)n1nnc(-c2cc(Cl)ccc2NC(=O)NC(=O)c2c(F)cccc2F)n1 [Example 11] | 4.20
Cn1nnc(-c2ccc(NC(=O)NC(=O)c3c(F)cccc3F)c(Cl)c2)n1 [Example 5] | 2.88

same assay, conditions: pH2; Table 2, tetrazolylanilines of formula (III)

Molecule | logP (pH2)
CCCn1nnc(-c2cc(Cl)c(N)cc2Cl)n1 [III-22] | 2.75
Nc1cc(Cl)c(-c2nnnn2C(F)F)cc1Cl [III-29] | 2.36
Nc1ccc(-c2nnn(-c3ccccc3)n2)cc1Cl [III-15] | 3.28
Cn1nnc(-c2ccc(N)c(Cl)c2)n1 [III-6] | 1.70
CC(C)(C)n1nnc(-c2ccc(N)cc2)n1 [III-23] | 1.69
CCOCn1nnc(-c2ccc(N)c(Cl)c2)n1 [III-11] | 2.34
Nc1ccc(-c2nnnn2C(F)F)cc1 [III-47] | 1.24
Nc1ccc(-c2nn[nH]n2)c(Cl)c1 [III-9] | 1.53
CC(=O)OCCn1nnc(-c2ccc(N)c(Cl)c2)n1 [III-24] | 1.92
CC(C)Cn1nnc(-c2ccc(N)c(Cl)c2)n1 [III-17] | 2.95
CCCn1nnc(-c2ccc(N)c(Cl)c2)n1 [III-12] | 2.52
CC(C)(C)n1nnc(-c2ccc(N)cc2Cl)n1 [III-31] | 2.42
COC(=O)Cn1nnc(-c2ccc(N)c(Cl)c2)n1 [III-10] | 1.92
CC(C)(C)n1nnc(-c2ccc(N)cc2F)n1 [III-32] | 2.14
CC(C)(C)n1nnc(-c2cc(Cl)c(N)c(Cl)c2)n1 [III-19] | 3.81
Cc1cc(-c2nn[nH]n2)cc(Cl)c1N [III-5] | 1.20
CC(C)(C)n1nnc(-c2ccc(N)c(Cl)c2)n1 [III-26] | 2.94
Nc1cc(Cl)c(-c2nnn(C(F)F)n2)cc1Cl [III-28] | 2.69
Nc1ccc(-c2nnn(CCC(F)=C(F)F)n2)cc1Cl [III-18] | 2.68
Nc1ccc(-c2nnn(C(F)F)n2)cc1 [III-46] | 1.49
Nc1cc(Cl)c(-c2nn[nH]n2)cc1Cl [III-8] | 1.16
Nc1ccc(-c2nnn(C(F)F)n2)c(Cl)c1 [III-48] | 2.09
CC(C)Cn1nnc(-c2cc(Cl)c(N)c(Cl)c2)n1 [III-20] | 3.78
Nc1ccc(-c2nnnn2C(F)F)cc1Cl [III-16] | 1.92
Nc1ccc(-c2nnn(C(F)F)n2)cc1Cl [III-14] | 2.08
CC(C)Cn1nnc(-c2cc(Cl)c(N)cc2Cl)n1 [III-21] | 3.15
Nc1ccc(-c2nnn(C(F)F)n2)c(F)c1 [III-50] | 1.84
Nc1ccc(Cl)cc1-c1nn[nH]n1 [III-7] | 1.50
Nc1c(Cl)cc(-c2nn[nH]n2)cc1Cl [III-25] | 1.40
Nc1ccc(-c2nnnn2C(F)F)c(Cl)c1 [III-49] | 1.81

same assay, conditions: pH 2; pH2; HPLC gradient acetonitrile/0.1% aqueous phosphoric acid; values in preparation examples; read-out: log P(pH2)

chromatographic logP | Molecule
3.72 | O=C(NC(=O)c1c(F)cccc1F)Nc1ccc(-c2nnn(C3CCCCO3)n2)cc1Cl (centres unmarked) [Example 2, N-(2,6-difluorobenzoyl)-N′-[2-chloro-4-(2-tetrahydropyran-2-yl-tetrazol-5-yl)-phenyl]-urea]
3.58 | CC(C)(C)n1nnc(-c2cc(Cl)ccc2N)n1 [Example a, 5-(2-amino-5-chlorophenyl)-2-tert-butyl-tetrazole]
1.17 | Cn1nnnc1-c1ccc(N)c(Cl)c1 [1-methyl-(3-chloro-4-aminophenyl)-tetrazole]
3.52 | Nc1ccc(-c2nnn(Cc3ccc(Br)cc3)n2)cc1Cl [Example b, 5-(3-chloro-4-aminophenyl)-2-(4-bromobenzyl)-tetrazole]
2.13 | O=C(NC(=O)c1c(F)cccc1F)Nc1ccc(-c2nn[nH]n2)cc1Cl [Example 1, N-(2,6-difluorobenzoyl)-N′-(2-chloro-4-tetrazol-5-yl-phenyl)-urea]
1 | Nc1ccc(-c2nn[nH]n2)cc1Cl [5-(3-chloro-4-aminophenyl)-tetrazole]

test system: diamond-back moth (Plutella xylostella) caterpillars; assay: Plutella test (dipped cabbage leaves); format: in vivo; details: active compound concentration 0.1%, after 6 days, cabbage leaves (Brassica oleracea)
Experimental: (§1) To produce a suitable active compound preparation, 1 part by weight of active compound is mixed with the stated amounts of solvent and emulsifier, and the concentrate is diluted with emulsifier-containing water to the desired concentration.
Cabbage leaves (Brassica oleracea) are treated by dipping into the active compound preparation of the desired concentration and are populated with diamond-back moth (Plutella xylostella) caterpillars while the leaves are still moist.
(§2) After the desired period, the destruction is determined in %. 100% means that all the caterpillars have been killed; 0% means that none of the caterpillars have been killed.

Molecule | destruction
CC(C)(C)n1nnc(-c2ccc(NC(=O)NC(=O)c3c(F)cccc3F)c(Cl)c2)n1 [Example 4] | 100%

test system: Heliothis virescens; assay: Heliothis virescens test (dipped soya shoots); format: in vivo; details: active compound concentration 0.1%, after 6 days, soya shoots (Glycine max)
Experimental: as §1
Soya shoots (Glycine max) are treated by dipping into the active compound preparation of the desired concentration and are populated with Heliothis virescens while the leaves are still moist.
as §2

Molecule | destruction
CC(C)(C)n1nnc(-c2ccc(NC(=O)NC(=O)c3c(F)cccc3F)c(Cl)c2)n1 [Example 4] | 100%

test system: fall armyworm (Spodoptera frugiperda) caterpillars; assay: Spodoptera frugiperda test (dipped cabbage leaves); format: in vivo; details: active compound concentration 0.1%, after 7 days, cabbage leaves (Brassica oleracea)
Experimental: Spodoptera frugiperda Test
as §1
Cabbage leaves (Brassica oleracea) are treated by dipping into the active compound preparation of the desired concentration and are populated with fall armyworm (Spodoptera frugiperda) caterpillars while the leaves are still moist.
as §2

Molecule | destruction
CCCn1nnc(-c2ccc(NC(=O)NC(=O)c3c(F)cccc3F)c(Cl)c2)n1 [Example 15] | 100%
O=C(NC(=O)c1c(F)cccc1F)Nc1ccc(-c2nnn(C(F)F)n2)cc1Cl [Example 18] | 100%
CC(C)(C)n1nnc(-c2ccc(NC(=O)NC(=O)c3c(F)cccc3F)c(Cl)c2)n1 [Example 4] | 100%
CC(C)(C)n1nnc(-c2cc(Cl)c(NC(=O)NC(=O)c3c(F)cccc3F)cc2Cl)n1 [Example 16] | 100%
Cn1nnc(-c2ccc(NC(=O)NC(=O)c3c(F)cccc3F)c(Cl)c2)n1 [Example 5] | 100%
O=C(NC(=O)c1c(F)cccc1F)Nc1ccc(-c2nnnn2C(F)F)cc1Cl [Example 20] | 100%
CCOCn1nnc(-c2ccc(NC(=O)NC(=O)c3c(F)cccc3F)c(Cl)c2)n1 [Example 14] | 100%
CC(C)(C)n1nnc(-c2ccc(NC(=O)NC(=O)c3c(F)cccc3Cl)c(Cl)c2)n1 [Example 10] | 100%

test system: mustard beetle (Phaedon cochleariae) larvae; assay: Phaedon larvae test (dipped cabbage leaves); format: in vivo; details: active compound concentration 0.1%, after 7 days, cabbage leaves (Brassica oleracea)
Experimental: as §1
Cabbage leaves (Brassica oleracea) are treated by dipping into the active compound preparation of the desired concentration and are populated with mustard beetle (Phaedon cochleariae) larvae while the leaves are still moist.
After the desired period, the destruction is determined in %. 100% means that all the beetle have been killed; 0% means that none of the beetle larvae have been killed.

Molecule | destruction
O=C(NC(=O)c1c(F)cccc1F)Nc1ccc(-c2nnn(C(F)F)n2)cc1Cl [Example 18] | 100%
CC(C)(C)n1nnc(-c2ccc(NC(=O)NC(=O)c3c(F)cccc3F)c(Cl)c2)n1 [Example 4] | 100%
CC(C)(C)n1nnc(-c2cc(Cl)c(NC(=O)NC(=O)c3c(F)cccc3F)cc2Cl)n1 [Example 16] | 100%
O=C(NC(=O)c1c(F)cccc1F)Nc1ccc(-c2nnnn2C(F)F)cc1Cl [Example 20] | 100%
CC(C)(C)n1nnc(-c2ccc(NC(=O)NC(=O)c3c(F)cccc3Cl)c(Cl)c2)n1 [Example 10] | 100%

test system: fall armyworm (Spodoptera exigua) caterpillars; assay: Spodoptera exigua test (dipped cabbage leaves); format: in vivo; details: active compound concentration 0.1%, after 6 days, cabbage leaves (Brassica oleracea)
Experimental: as §1
Cabbage leaves (Brassica oleracea) are treated by dipping into the active compound preparation of the desired concentration and are populated with fall armyworm (Spodoptera exigua) caterpillars while the leaves are still moist.
as §2

Molecule | destruction
CC(C)(C)n1nnc(-c2ccc(NC(=O)NC(=O)c3c(F)cccc3F)c(Cl)c2)n1 [Example 4] | 100%
